Laboratory results: ChEMBL document CHEMBL1134226, “The amide hydrogen of (-)-indolactam-V and benzolactam-V8's plays a critical role in protein kinase C binding and tumor-promoting activities” (Bioorg Med Chem Lett, 2001)

What was measured:
[1] = target: T1, Protein kinase C beta type (Homo sapiens, UniProt P05771); assay: Inhibition of [3H]phorbol-12,13-dibutyrate (PDBu) binding to Protein kinase C beta C1b domain
Target sequence in this assay (P05771 whole entry, looked up, the tested form may be a part): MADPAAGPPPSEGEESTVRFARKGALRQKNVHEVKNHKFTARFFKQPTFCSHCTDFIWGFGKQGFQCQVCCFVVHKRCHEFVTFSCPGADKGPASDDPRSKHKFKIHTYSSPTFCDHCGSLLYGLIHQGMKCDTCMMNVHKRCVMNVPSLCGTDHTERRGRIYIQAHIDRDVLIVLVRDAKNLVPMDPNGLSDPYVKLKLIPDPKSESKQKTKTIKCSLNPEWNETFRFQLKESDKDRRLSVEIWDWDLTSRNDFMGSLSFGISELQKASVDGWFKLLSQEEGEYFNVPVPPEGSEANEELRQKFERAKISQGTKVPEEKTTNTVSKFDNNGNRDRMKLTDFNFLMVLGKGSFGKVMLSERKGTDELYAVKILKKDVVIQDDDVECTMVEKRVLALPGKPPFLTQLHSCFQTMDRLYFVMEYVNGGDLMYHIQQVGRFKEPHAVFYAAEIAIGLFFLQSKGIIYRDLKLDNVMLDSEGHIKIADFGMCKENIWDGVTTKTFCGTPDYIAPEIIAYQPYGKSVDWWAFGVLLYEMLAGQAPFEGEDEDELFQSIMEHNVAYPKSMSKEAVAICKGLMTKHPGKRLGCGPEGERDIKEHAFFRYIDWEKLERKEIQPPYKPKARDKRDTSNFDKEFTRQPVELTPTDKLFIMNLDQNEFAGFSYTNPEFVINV

[2] = target: Protein kinase C theta type (Homo sapiens, UniProt Q04759); assay: Inhibition of [3H]phorbol-12,13-dibutyrate (PDBu) binding to Protein kinase C theta C1b domain
HL-60 [3] = assay: Tested for superoxide (O2-) generation inducing activity in differentiated HL-60 cells at 10e-5 M; assay type: functional, Homo sapiens
[4] = target: T2, Protein kinase C alpha type (Homo sapiens, UniProt P17252); assay: Inhibition of [3H]phorbol-12,13-dibutyrate (PDBu) binding to Protein kinase C alpha C1a domain
HL-60 [5] = assay: Tested for superoxide (O2-) generation inducing activity in differentiated HL-60 cells at 10e-4 M; assay type: functional, Homo sapiens
[6] = target: T3, Protein kinase C delta type (Homo sapiens, UniProt Q05655); assay: Inhibition of [3H]phorbol-12,13-dibutyrate (PDBu) binding to Protein kinase C delta C1b domain
[7] = target: T1, Protein kinase C beta type; assay: Inhibition of [3H]phorbol-12,13-dibutyrate (PDBu) binding to Protein kinase C beta C1a
Target sequence in this assay (P05771 whole entry, the tested form may be a part): as the sequence (P05771 whole entry, looked up, the tested form may be a part) above

[8] = target: T4, Protein kinase C epsilon type (Homo sapiens, UniProt Q02156); assay: Inhibition of [3H]phorbol-12,13-dibutyrate (PDBu) binding to Protein kinase C epsilon C1a domain
T4 sequence (Q02156 whole entry): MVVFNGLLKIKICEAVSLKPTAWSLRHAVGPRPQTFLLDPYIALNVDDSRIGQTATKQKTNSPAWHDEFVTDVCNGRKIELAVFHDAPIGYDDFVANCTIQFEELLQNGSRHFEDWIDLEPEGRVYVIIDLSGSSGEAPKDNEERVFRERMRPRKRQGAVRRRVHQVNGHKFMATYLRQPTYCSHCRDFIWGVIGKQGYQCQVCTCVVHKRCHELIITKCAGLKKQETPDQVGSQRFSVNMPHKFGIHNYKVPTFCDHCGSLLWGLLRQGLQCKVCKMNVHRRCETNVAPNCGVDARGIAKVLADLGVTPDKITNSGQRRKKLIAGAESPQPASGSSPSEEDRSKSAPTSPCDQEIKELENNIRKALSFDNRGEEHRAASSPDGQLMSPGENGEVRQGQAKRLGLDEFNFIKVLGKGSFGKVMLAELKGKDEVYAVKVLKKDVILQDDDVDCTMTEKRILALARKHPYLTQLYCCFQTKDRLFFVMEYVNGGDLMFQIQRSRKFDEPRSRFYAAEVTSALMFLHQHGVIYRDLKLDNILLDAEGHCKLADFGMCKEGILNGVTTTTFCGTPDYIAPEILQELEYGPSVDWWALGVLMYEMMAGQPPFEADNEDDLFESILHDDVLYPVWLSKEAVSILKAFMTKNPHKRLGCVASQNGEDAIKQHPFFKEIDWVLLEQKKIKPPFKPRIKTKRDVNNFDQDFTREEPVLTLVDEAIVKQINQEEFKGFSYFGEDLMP

Raji (Homo sapiens) [9] = assay: Tested for epstein barr virus early antigen (EBV-EA) inducing activity in Raji cells at 10e-6 M
[10] = target: T5, Protein kinase C gamma type (Homo sapiens, UniProt P05129); assay: Inhibition of [3H]phorbol-12,13-dibutyrate (PDBu) binding to Protein kinase C gamma C1b domain
[11] = target: T3, Protein kinase C delta type; assay: Inhibition of [3H]phorbol-12,13-dibutyrate (PDBu) binding to Protein kinase C delta C1a domain
[12] = target: T6, Protein kinase C eta type (Homo sapiens, UniProt P24723); assay: Inhibition of [3H]phorbol-12,13-dibutyrate (PDBu) binding to Protein kinase C eta C1a domain
[13] = target: T4, Protein kinase C epsilon type; assay: Inhibition of [3H]phorbol-12,13-dibutyrate (PDBu) binding to Protein kinase C epsilon C1b domain
[14] = target: T2, Protein kinase C alpha type; assay: Inhibition of [3H]phorbol-12,13-dibutyrate (PDBu) binding to Protein kinase C alpha C1b domain
Raji (Homo sapiens) [15] = assay: Tested for epstein barr virus early antigen (EBV-EA) inducing activity in Raji cells at 10e-4.5 M
[16] = target: T5, Protein kinase C gamma type; assay: Inhibition of [3H]phorbol-12,13-dibutyrate (PDBu) binding to Protein kinase C gamma C1a domain
Raji (Homo sapiens) [17] = assay: Tested for epstein barr virus early antigen (EBV-EA) inducing activity in Raji cells at 10e-5 M
HL-60 [18] = assay: Tested for superoxide (O2-) generation inducing activity in differentiated HL-60 cells at 10e-6 M; assay type: functional, Homo sapiens
[19] = target: T6, Protein kinase C eta type; assay: Inhibition of [3H]phorbol-12,13-dibutyrate (PDBu) binding to Protein kinase C eta C1b domain
HL-60 [20] = assay: Tested for superoxide (O2-) generation inducing activity in differentiated HL-60 cells at 10e-7 M; assay type: functional, Homo sapiens
HL-60 [21] = assay: Tested for epstein barr virus early antigen (EBV-EA) inducing activity in […] at 10e-7 M; assay type: functional, Homo sapiens

T3 sequence (Q05655 whole entry, the tested form may be a part): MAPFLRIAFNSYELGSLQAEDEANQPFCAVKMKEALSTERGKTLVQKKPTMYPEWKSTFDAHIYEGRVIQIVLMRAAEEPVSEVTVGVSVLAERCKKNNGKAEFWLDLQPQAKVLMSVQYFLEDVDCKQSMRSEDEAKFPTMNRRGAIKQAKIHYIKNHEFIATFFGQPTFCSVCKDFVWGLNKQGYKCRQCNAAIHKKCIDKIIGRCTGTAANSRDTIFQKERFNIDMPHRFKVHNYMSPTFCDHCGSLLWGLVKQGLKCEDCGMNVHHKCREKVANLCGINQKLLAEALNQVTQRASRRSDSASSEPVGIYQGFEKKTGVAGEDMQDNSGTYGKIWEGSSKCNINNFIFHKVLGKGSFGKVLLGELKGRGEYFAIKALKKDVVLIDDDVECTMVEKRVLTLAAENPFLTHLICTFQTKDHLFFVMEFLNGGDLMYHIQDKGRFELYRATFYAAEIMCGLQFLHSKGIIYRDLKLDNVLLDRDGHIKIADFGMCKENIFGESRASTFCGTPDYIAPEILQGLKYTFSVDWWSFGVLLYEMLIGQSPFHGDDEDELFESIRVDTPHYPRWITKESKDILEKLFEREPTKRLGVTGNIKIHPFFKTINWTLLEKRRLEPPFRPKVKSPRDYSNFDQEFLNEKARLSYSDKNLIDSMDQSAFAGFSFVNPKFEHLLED
T6 sequence (P24723 whole entry, the tested form may be a part): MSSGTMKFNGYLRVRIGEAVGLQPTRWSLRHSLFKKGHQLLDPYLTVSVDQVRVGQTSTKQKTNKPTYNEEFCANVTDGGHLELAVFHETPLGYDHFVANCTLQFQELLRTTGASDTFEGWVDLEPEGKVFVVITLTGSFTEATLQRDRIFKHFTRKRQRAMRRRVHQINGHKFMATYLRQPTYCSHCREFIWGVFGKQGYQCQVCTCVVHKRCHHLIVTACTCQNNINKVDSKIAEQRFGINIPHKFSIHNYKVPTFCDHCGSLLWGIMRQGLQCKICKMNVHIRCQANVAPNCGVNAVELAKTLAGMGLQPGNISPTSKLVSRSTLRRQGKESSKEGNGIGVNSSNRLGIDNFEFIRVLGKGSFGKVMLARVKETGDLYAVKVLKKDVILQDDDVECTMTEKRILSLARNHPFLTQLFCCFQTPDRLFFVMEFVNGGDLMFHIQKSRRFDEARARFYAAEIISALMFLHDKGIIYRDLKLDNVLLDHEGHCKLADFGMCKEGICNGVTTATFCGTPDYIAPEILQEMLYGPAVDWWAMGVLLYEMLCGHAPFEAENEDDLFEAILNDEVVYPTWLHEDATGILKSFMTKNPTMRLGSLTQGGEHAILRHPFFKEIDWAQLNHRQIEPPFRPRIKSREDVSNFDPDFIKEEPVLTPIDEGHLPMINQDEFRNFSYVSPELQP
Protein kinase C theta type, sequence (Q04759 whole entry, the tested form may be a part): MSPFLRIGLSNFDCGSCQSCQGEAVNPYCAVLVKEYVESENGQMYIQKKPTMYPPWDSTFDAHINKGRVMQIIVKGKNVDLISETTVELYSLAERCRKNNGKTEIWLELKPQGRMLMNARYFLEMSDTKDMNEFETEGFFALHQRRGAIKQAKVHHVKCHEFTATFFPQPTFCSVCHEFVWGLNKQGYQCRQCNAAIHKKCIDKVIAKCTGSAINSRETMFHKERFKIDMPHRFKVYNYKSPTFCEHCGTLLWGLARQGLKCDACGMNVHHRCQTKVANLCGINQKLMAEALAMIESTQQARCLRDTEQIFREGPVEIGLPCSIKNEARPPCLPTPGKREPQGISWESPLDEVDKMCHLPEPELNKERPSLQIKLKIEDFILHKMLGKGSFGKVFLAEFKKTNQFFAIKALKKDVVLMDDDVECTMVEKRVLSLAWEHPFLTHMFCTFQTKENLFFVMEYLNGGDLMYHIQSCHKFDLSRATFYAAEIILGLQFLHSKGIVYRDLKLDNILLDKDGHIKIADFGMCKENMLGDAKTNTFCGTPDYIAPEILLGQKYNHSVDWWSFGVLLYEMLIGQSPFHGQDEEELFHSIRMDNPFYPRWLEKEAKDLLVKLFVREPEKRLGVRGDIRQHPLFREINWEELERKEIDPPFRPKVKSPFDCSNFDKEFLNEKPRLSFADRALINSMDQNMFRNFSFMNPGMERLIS

| Structure (SMILES) | Ki [1] | Ki [2] | Activity (HL-60 [3]) | Ki [4] | Ki [6] | Ki [7] | Ki [8] | Activity (Raji (Homo sapiens) [9]) | Ki [10] | Ki [11] | Ki [12] | Ki [13] | Ki [14] | Activity (Raji (Homo sapiens) [15]) | Ki [16] | Activity (Raji (Homo sapiens) [17]) | Activity (HL-60 [18]) | Ki [19] | Activity (HL-60 [20]) | also measured |
| --- | --- | --- | --- | --- | --- | --- | --- | --- | --- | --- | --- | --- | --- | --- | --- | --- | --- | --- | --- | --- |
| CCCCCCCCCCc1ccc2c(c1)C[C@@H](CO)OC(=O)[C@H](C(C)C)N2C | 22000 nM | 1100 nM | 0.2 nM min-1 ml-1 | > 10000 nM | 1160 nM | > 10000 nM | > 10000 nM | 0.8% | 17600 nM | 70600 nM | > 10000 nM | 262 nM | > 10000 nM | 5% | 6320 nM | 1.9% | 0.11 nM min-1 ml-1 | 120 nM | – | Activity (HL-60 [5]): 0.19 nM min-1 ml-1 |
| CCCCCCCCCCCCCC(=O)O[C@@H]1[C@@H](C)[C@@]2(O)[C@@H](C=C(CO)C[C@]3(O)C(=O)C(C)=C[C@@H]23)[C@@H]2C(C)(C)[C@]12OC(C)=O [PHORBOL MYRISTATE ACETATE] | – | – | – | – | – | – | – | – | – | – | – | – | – | – | – | – | – | – | 1.32 nM min-1 ml-1 | – |
| CC(C)[C@H]1C(=O)N[C@H](CO)Cc2c[nH]c3cccc(c23)N1C [INDOLACTUM] | – | – | 3.18 nM min-1 ml-1 | – | – | – | – | 33.5% | – | – | – | – | – | – | – | 28.9% | 3.19 nM min-1 ml-1 | – | 0.05 nM min-1 ml-1 | Activity (HL-60 [21]): 16.8% |
| CCCCCCCCCCc1ccc2c(c1)C[C@@H](CO)NC(=O)[C@H](C(C)C)N2C | 261 nM | 13.2 nM | 3.04 nM min-1 ml-1 | 323 nM | 14.6 nM | 442 nM | 8360 nM | 6.7% | 151 nM | 2770 nM | 2490 nM | 13.1 nM | 4690 nM | 17.6% | 1660 nM | 11.3% | 0.31 nM min-1 ml-1 | 6.4 nM | 0.33 nM min-1 ml-1 | – |
